≈ marks a conversion by molar mass, not a printed value. Marks after values point to notes of the source that are not given here.
How the values were obtained:
[1] = system: Salmonella typhimurium TA100; assay: Ames MPF mutagenicity assay; type: cell-based; settings: for Revertants fold increase (over baseline) TA 100 S9+: with S9; for Revertants fold increase (over baseline) TA 100 S9−: without S9; for Genotoxicity classification (Ames MPF): TA100, with/without metabolic activation, 0.16-5 mg/mL
Experimental: (§1) An Ames MPF 98/100 mutagenicity assay sample kit (Xenometrix AG, Allschwil, Switzerland) was used to evaluate the genotoxicity of compounds 7 and 9 as described previously. Salmonella typhimurium TA98 (frameshift mutations) and TA100 (base-pair substitutions) strains were used and the compounds were tested in concentrations between […] and 5000 μg/mL (5.0, 2.5, 1.25, 0.625, 0.3125, 0.156 mg/mL in DMSO) in accordance with the guidelines. Mutagenity was tested with/without metabolic activation with an Aroclor™-1254 induced male Sprague–Dawley rat liver microsomal enzyme (S9) mix (Xenometrix AG, Allschwil, Switzerland). 2-Nitrofluorene (2.0 μg/mL) and 4-nitroquinoline N-oxide (0.1 μg/mL) were used without S9, and 1.0 μg/mL and 2.5 μg/mL of 2-aminoanthracene solutions were used with S9 against TA98 and TA100 as positive controls, respectively. At the end of each experiment, yellow wells were counted as positive and compared with the negative control. Fold induction over the negative control and fold induction over the baseline were calculated as described: Fold induction over the negative control is the ratio of the mean number of positive wells for the dose concentration divided by the mean number of positive wells for the zero-dose (negative) control. Fold induction over the baseline is the ratio of the mean number of positive wells for the dose concentration divided by the zero-dose baseline. The zero-dose baseline is obtained by adding one standard deviation to the mean number of positive wells of the zero-dose control. If the baseline is less than one, the value is set to one for calculation.
(§2) Genotoxicity was determined according to the previous criteria. For a baseline value of ≤3, significant increases between 2- and 3-fold of the baseline were classified as weak mutagens, and increases ≥3-fold of the baseline were classified as mutagens. For a baseline value of >3, significant increases between 1.5- and 2.5-fold of the baseline were classified as weak mutagens, and increases ≥2.5-fold of the baseline were classified as mutagens. At least two adjacent doses with significant increases, or a significant increase at the highest dose level, should be observed for a mutagenic compound. All of the doses were compared according to Student’s t-test at p < 0.05 for statistical significance.

[2] = system: Salmonella typhimurium TA98; assay: Ames MPF mutagenicity assay; type: cell-based; settings: for Revertants fold increase (over baseline) TA 98 S9+: with S9; for Revertants fold increase (over baseline) TA 98 S9−: without S9; for Genotoxicity classification (Ames MPF): TA98, with/without metabolic activation, 0.16-5 mg/mL
Experimental: as §1, §2

[3] = system: S. aureus (ATCC 25923); assay: Microdilution susceptibility assay (MIC); type: cell-based; settings: Staphylococcus aureus, ATCC25923
Experimental: (§3) Compounds 1–10 were screened for their antimicrobial activity against gram-negative bacteria, gram-positive bacteria, and yeasts, listed in Table 1. Bacteria were grown in Mueller-Hinton Broth and yeasts were grown in Sabouraud Dextrose Broth (SDB) during experiments. Overnight cultures were prepared routinely by subculturing of stock culture onto Mueller-Hinton Agar for bacteria and Sabouraud Dextrose Agar for yeasts.
(§4) Microdilution susceptibility assay was used for the determination of antibacterial and anticandidal efficacy of compounds 1–10. Chloramphenicol and ketoconazole were used as positive controls for bacteria and yeasts, respectively. All experiments were designed according to the Clinical Laboratory Standards Institute (CLSI). All chemicals were dissolved in dimethyl sulfoxide (DMSO) to obtain stock solution (10 mg/mL). Two-fold serial dilutions (800, 400, 200...0.78 µg/mL) of the compounds were prepared from stock solutions with dH2O. 100 µL of each solution was transferred to 96-well microtiter plates and 100 µL of 10^6 CFU/mL of bacteria and 2 × 10^3 of CFU/mL yeast were added to related wells. As negative controls, wells including microorganisms without agents and wells including agents without microorganisms were used. The plates were kept at 35 °C for 18–20 h and the growth was determined with resazurin (20 mg/mL). Assays were carried out in triplicate.

[4] = system: C. albicans (ATCC 90028); assay: Microdilution susceptibility assay (MIC); type: cell-based; settings: Candida albicans, ATCC90028
Experimental: as §3, §4

[5] = system: E. faecalis (ATCC 51299); assay: Microdilution susceptibility assay (MIC); type: cell-based; settings: Enterococcus faecalis, ATCC51299
Experimental: as §3, §4

[6] = system: E. coli (ATCC 25922); assay: Microdilution susceptibility assay (MIC); type: cell-based; settings: Escherichia coli, ATCC25922
Experimental: as §3, §4

[7] = system: E. faecalis (ATCC 29212); assay: Microdilution susceptibility assay (MIC); type: cell-based; settings: Enterococcus faecalis, ATCC29212
Experimental: as §3, §4

[8] = system: K. pneumoniae (ATCC 700603); assay: Microdilution susceptibility assay (MIC); type: cell-based; settings: Klebsiella pneumoniae, ATCC700603
Experimental: as §3, §4

[9] = system: C. parapsilosis (ATCC 22019); assay: Microdilution susceptibility assay (MIC); type: cell-based, Candida parapsilosis; settings: Lodderomyces parapsilosis, ATCC22019
Experimental: as §3, §4

[10] = system: C. krusei cells; assay: Flow cytometry live/dead analysis (TO/PI); type: cell-based, Candida krusei; settings: 25 µg/mL, 4 h
Excerpt: In order to investigate the effects of compounds 7 and 9 on the integrity of C. krusei cells, flow cytometry was used with BD cell viability kits. Live cells are impermeable to dyes such as PI since they have intact membranes. TO is a permeant dye and enters live and dead cells to varying degrees. The fluorescent signal from TO in viable cells allows their enumeration, even when debris in the cell preparation contaminates a scatter gate around the cells. Thus, the combination of these two dyes provides a rapid and reliable method for discriminating live and dead eukaryotic cells, including yeasts. All steps were performed according to manufacturers’ recommendations. Briefly, Candida cells were cultured at 35 °C in SDB until late log phase. The cells were centrifuged and washed with phosphate-buffered saline (PBS) at pH = 7.0. Suspensions containing 2 × 10^3 cells/mL were incubated with compounds 7 and 9, and ketoconazole as a reference drug, for 4 h at 35 °C, with shaking (200 r.p.m.). […] Suspensions of treated and untreated cells were incubated for 30 min in the presence of 2 µL of PI and 2 µL of TO, in the dark, at room temperature. The cell suspensions were analysed in a BD Accuri C6 flow cytometer (Becton-Dickinson, Mansfield, MA, USA). The cell scattergram (forward scatter: FS, side scatter: SS), the autofluorescence (without fluorocrome), and the intensity of fluorescence at FL1 (green fluorescence, 525 nm) and FL2 (red fluorescence, 620 nm) were recorded using a logarithmic scale.

| Structure (SMILES) | Revertants fold increase (over baseline) TA 100 S9+ ([1]; 0.16 mg/mL) | Revertants fold increase (over baseline) TA 100 S9− ([1]; 0.16 mg/mL) | Revertants fold increase (over baseline) TA 100 S9+ ([1]; 0.31 mg/mL) | Revertants fold increase (over baseline) TA 100 S9− ([1]; 0.31 mg/mL) | Revertants fold increase (over baseline) TA 100 S9+ ([1]; 0.63 mg/mL) | Revertants fold increase (over baseline) TA 100 S9− ([1]; 0.63 mg/mL) | Revertants fold increase (over baseline) TA 100 S9+ ([1]; 1.25 mg/mL) | Revertants fold increase (over baseline) TA 100 S9− ([1]; 1.25 mg/mL) | Revertants fold increase (over baseline) TA 100 S9+ ([1]; 2.5 mg/mL) | Revertants fold increase (over baseline) TA 100 S9− ([1]; 2.5 mg/mL) | Revertants fold increase (over baseline) TA 100 S9+ ([1]; 5 mg/mL) | Revertants fold increase (over baseline) TA 100 S9− ([1]; 5 mg/mL) | Genotoxicity classification (Ames MPF) [1] | Revertants fold increase (over baseline) TA 98 S9+ ([2]; 0.16 mg/mL) | Revertants fold increase (over baseline) TA 98 S9− ([2]; 0.16 mg/mL) | Revertants fold increase (over baseline) TA 98 S9+ ([2]; 0.31 mg/mL) | Revertants fold increase (over baseline) TA 98 S9− ([2]; 0.31 mg/mL) | Revertants fold increase (over baseline) TA 98 S9+ ([2]; 0.63 mg/mL) | Revertants fold increase (over baseline) TA 98 S9− ([2]; 0.63 mg/mL) | Revertants fold increase (over baseline) TA 98 S9+ ([2]; 1.25 mg/mL) | further results |
| --- | --- | --- | --- | --- | --- | --- | --- | --- | --- | --- | --- | --- | --- | --- | --- | --- | --- | --- | --- | --- | --- |
| Cn1cccc1C(=O)C=Cc1ccc(-c2ccc(Cl)cc2)o1 [Compound 7, 1-(1-Methyl-1H-pyrrol-2-yl)-3-(5-(4-chlorophenyl)furan-2-yl)prop-2-en-1-one] | 0.56 | 0.44 | 0.68 | 0.56 | 0.79 | 0.67 | 0.62 | 0.33 | 0.90 | 0.33 | 0.79 | 0.44 | non-genotoxic | 0.68 | 0.66 | 0.76 | 0.33 | 1.01 | 0.44 | 0.68 | Revertants fold increase (over baseline) TA 98 S9− ([2]; 1.25 mg/mL): 0.66; Revertants fold increase (over baseline) TA 98 S9+ ([2]; 2.5 mg/mL): 0.51; Revertants fold increase (over baseline) TA 98 S9− ([2]; 2.5 mg/mL): 0.33; Revertants fold increase (over baseline) TA 98 S9+ ([2]; 5 mg/mL): 0.25; Genotoxicity classification (Ames MPF) [2]: non-genotoxic; MIC [3]: 400 µg/mL (≈ 1280 µM); MIC [4]: 50 µg/mL (≈ 160 µM); MIC [5]: 200 µg/mL (≈ 642 µM); MIC [6]: 400 µg/mL (≈ 1280 µM); MIC [7]: 100 µg/mL (≈ 321 µM); MIC [8]: 100 µg/mL (≈ 321 µM); MIC [9]: 100 µg/mL (≈ 321 µM); Dead Cell % [10]: 20.0%; Live Cell % [10]: 79.6% |
| Cn1cccc1C(=O)C=Cc1ccc(-c2cc(Cl)ccc2Cl)o1 [Compound 9, 1-(1-Methyl-1H-pyrrol-2-yl)-3-(5-(2,5-dichlorophenyl)furan-2-yl)prop-2-en-1-one] | 0.51 | 0.48 | 0.73 | 0.54 | 0.68 | 0.54 | 0.68 | 0.54 | 0.79 | 0.30 * | 0.90 | 0.12 * | non-genotoxic | 0.51 | 0.89 | 0.79 | 0.83 | 0.34 * | 0.89 | 0.39 | Revertants fold increase (over baseline) TA 98 S9− ([2]; 1.25 mg/mL): 1.07; Revertants fold increase (over baseline) TA 98 S9+ ([2]; 2.5 mg/mL): 0.79; Revertants fold increase (over baseline) TA 98 S9− ([2]; 2.5 mg/mL): 0.24 *; Revertants fold increase (over baseline) TA 98 S9+ ([2]; 5 mg/mL): 0.51; Revertants fold increase (over baseline) TA 98 S9− ([2]; 5 mg/mL): 0.54; Genotoxicity classification (Ames MPF) [2]: non-genotoxic; MIC [3]: 200 µg/mL (≈ 578 µM); MIC [4]: 200 µg/mL (≈ 578 µM); MIC [5]: 400 µg/mL (≈ 1160 µM); MIC [6]: 100 µg/mL (≈ 289 µM); MIC [7]: 200 µg/mL (≈ 578 µM); MIC [8]: 200 µg/mL (≈ 578 µM); MIC [9]: 50 µg/mL (≈ 144 µM); Dead Cell % [10]: 15.9%; Live Cell % [10]: 83.9% |

Reference: publication PMC6149822, “A New Series of Pyrrole-Based Chalcones: Synthesis and Evaluation of Antimicrobial Activity, Cytotoxicity, and Genotoxicity” (Molecules : A Journal of Synthetic Chemistry and Natural …, 2017)
